Here are results for one molecule from US9688645B2, “Macrocyclic urea and sulfamide derivatives as inhibitors of TAFIa” (SANOFI, priority 2008, dated 2017).

The structures appear in SMILES notation.

For this series the following is noted: from C=CCOC[C@@H](NC(=O)[C@@H](Cc1cn(CC=C)cn1)NC(=O)OCc1ccccc1)C(C)C; rcm bond; benzylidene[1,3-bis(2,4,6-trimethylphenyl)-2-imidazolidinylidene]dichloro(tricyclohexylphosphine)ruthenium (Grubbs II catalyst); dichloromethane; 4.38 mM; 25.0 °C.

Regarding `CC(C)[C@H]1COCC=CCn2cnc(c2)C[C@@H](NC(=O)OCc2ccccc2)C(=O)N1`, the ring closure, yield of all isomers amounted to 73.3%.
